Tests used:
[1] = test system: TC-1 cells; format: cell-based; conditions: different concentrations, incubated overnight, MTT assay (FIG. 1A-1C)
Description: (§1) More specifically, in the method, 100 μL of 5×10^3 TC-1 cells cultured in a RPMI medium containing 10% of calf serum were added into a 96-well cell culture plate, the F1 polypeptide (FIG. 1A), the F3 polypeptide (FIG. 1B), and control polypeptide P3 (FIG. 1C) with different concentrations were added respectively and incubated overnight in an incubator with 5% of CO2 at 37° C., and the cell proliferation was determined by a MTT assay.
(§2) 100 μL of 5×10^3 TC-1 cells cultured in a RPMI medium containing 10% of calf serum were added into a 96-well cell culture plate, 5 μg/mL of F1 and/or F3 and control polypeptides P3 and F4 were added respectively and incubated overnight in an incubator with 5% of CO2 at 37° C., and the cell proliferation was determined by a MTT assay.
as §2, with “and/or Imiquimod” for “and control polypeptides P3 and F4”

[2] = test system: NP69 cells; assay: MTT assay, immortalized normal cells NP69; format: cell-based; conditions: different concentrations, incubated overnight, MTT assay (FIG. 1D)
Description: as §1, with “Immortalized normal cells NP69 were used in another experiment. More” for “More”, “specifically,” for “specifically, in the method,”, “NP69” for “TC-1”, “polypeptide,” for “polypeptide (FIG. 1A),”, “polypeptide,” for “polypeptide (FIG. 1B),”, “1D)” for “1C)”

[3] = test system: TC-1 cells; assay: Interaction of FITC-labeled polypeptide with TC-1 cell (flow cytometry, confocal microscopy); format: cell-based, mouse; conditions: 2 μg/mL FITC-labeled polypeptide, flow cytometry (FIG. 5A)
Description: The separated protein was digested by trypsin, polypeptides produced from the digestion was labeled by iTRAQ 4-plex reagents, and the labeled polypeptides were quantitatively analyzed by using a system combining a nano high performance liquid chromatography and a triple time of flight mass spectrometer. […] Besides, the F3 polypeptide and a control polypeptide P3 were labeled by fluorescent dye fluorescein isothiocyanate (FITC), incubated together with TC-1 cells for different periods, and repeatedly washed, thereafter a fluorescence intensity of FITC in the TC-1 cell was detected by a flow cytometry (FIG. 5A).
1000 μL of 5×10^5 TC-1 cells cultured in a RPMI medium containing 10% of calf serum were added into a 24-well cell culture plate, 2 μg/mL of the F3 polypeptide labeled by FITC was added into the cells being incubated, cells at different time points of the incubation were collected and washed with PBS buffer solution, and then the relationship between the F3 polypeptide and TC-1 cell was observed by a flow cytometer (FIG. 5A) or a confocal microscopy (FIG. 5B).

[4] = test system: TC-1 cells; assay: Stability in vitro (Tests 1-3), MTT assay on TC-1 cells; format: cell-based, mouse; conditions: for inhibiting effect on growth of TC-1 cells at 72th hour: Test 1, 10 μg/ml, incubated 72 hours (FIG. 10A); for activity after being prepared and stored for 7 days: Test 2, stored at minus 20° C. before using, 10 μg/ml, 24 hours incubation (FIG. 10B); for activity in PBS with a pH value of 5.5: Test 3, 10 μg/ml; for activity in PBS with a pH value of 5.5 / activity in PBS heated at 100° C.: 24 hours incubation (FIG. 10C); for activity in PBS heated at 100° C.: Test 3, PBS heated 10 minutes at 100° C. before using
Description: RPMI medium containing 10% of calf serum and 5×10^3 TC-1 cells were added into a 96-well cell culture plate; 10 μg/ml of the F1 polypeptide, the F3 polypeptide, and a mixture of F1 and F3 in a ratio of 1:1 were added respectively into the medium and incubated for 72 hours in an incubator with 5% of CO2 at 37° C., and the cell proliferations at 24th hour, 48th hour, and 72th hour were determined respectively by the MTT assay.
The steps in the Test 2 were substantially the same as those in the Test 1, except that the F1 polypeptide and the F3 polypeptide which had been prepared and stored for 0, 1, 3, 5, and 7 days at minus 20° C. respectively before using were added into the medium, and the incubation was performed for 24 hours.
The steps in the Test 3 were substantially the same as those in the Test 1, except that the pH value of the phosphate buffer saline (PBS) in the medium was changed or the PBS is heated for 10 minutes at 100° C. before using, and the incubation was performed for 24 hours. Referring to FIG. 10C, it can be seen that the F1 polypeptide and the F3 polypeptide were still active even in the PBS with a pH value of 5.5 or heated at 100° C.

[5] = test system: IL-6; assay: IL-6 level in TC-1 culture solution by ELISA; format: cell-based, mouse; conditions: for change of IL-6 levels with increase of concentration: 5 μg/mL to 10 μg/mL, overnight (FIG. 12A, 12B); for IL-6 level in TC-1 culture solution: 5 μg/mL, overnight, vs untreated solution or P3 polypeptide (FIG. 12A)
Description: FIGS. 12A and 12B are graphs illustrating IL-6 levels (detected by ELISA) in TC-1 culture solutions treated by 5 μg/mL and 10 μg/mL of the P3 polypeptide, the F1 polypeptide, the F3 polypeptide, and a mixture of F1 and F3 overnight, respectively. […] IL-6 levels were decreased with increase of concentration of the F1 polypeptide, the F3 polypeptide, or the mixture of F1 and F3, which may be resulted from apoptosis of TC-1 cells induced by high concentration of the F1 polypeptide, the F3 polypeptide, or the mixture of F1 and F3.

[6] = test system: Hela cells; assay: MTT assay, growth of human cervical carcinoma cells (HELA) in vitro; format: cell-based; conditions: different dosages, overnight, MTT assay (FIG. 7)
[7] = test system: condyloma acuminate; conditions: topical application of 5% emulsion; cited from earlier work
[8] = test system: tumor; conditions: M. A. Apponyi, et al., Peptides, 2004, 25, 1035; cited from earlier work

Molecule	inhibiting effect on growth of TC-1 cells [1]	inhibiting effect on NP69 cells [2]	time at which FITC was found in TC-1 cell [3]	time of peak fluorescence intensity of FITC in TC-1 cell [3]	inhibiting effect on growth of TC-1 cells at 72th hour [4]	activity after being prepared and stored for 7 days [4]	activity in PBS with a pH value of 5.5 [4]	activity in PBS heated at 100° C. [4]	change of IL-6 levels with increase of concentration [5]	IL-6 level in TC-1 culture solution [5]	inhibiting effect on growth of Hela cells in vitro [6]	recurrence rate [7]	effect on tumor [8]
F3 polypeptide: polypeptide of SEQ ID NO: 2, sequence found in tree frog secretion, made by solid phase peptide synthesis; Caerin polypeptide (GLFGVLGSIAKHLLPHVVPVIAEKL; the sequence is synthesized)	obvious inhibiting effects	no inhibiting effect	15 min	2 h	significant inhibiting effects	not reduced	still active	still active	decreased	significantly higher			
CC(C)Cn1cnc2c(N)nc3ccccc3c21 [Imiquimod]											inhibiting effect	about 10%	
F1 polypeptide: polypeptide of SEQ ID NO: 1, sequence found in tree frog secretion, made by solid phase peptide synthesis; Caerin polypeptide (GLLSVLGSVAKHVLPHVVPVIAEHL; the sequence is synthesized)	obvious inhibiting effects	no inhibiting effect			significant inhibiting effects	not reduced	still active	still active	decreased	significantly higher			inhibiting effect on tumor
